# Measurements published in publication PMC7774954, “Interactomic affinity profiling by holdup assay: Acetylation and distal residues impact the PDZome-binding specificity of PTEN phosphatase” (PLoS ONE, 2020).
# *1 amine or outer side, *2 acyl side, *3 side chain or, on linkers, in order; H or OH if unused. Where a SMILES comes first, the peptide text is derived from it. The star is where a group is joined. X1 = O=C(CCCC[C@@H]1SC[C@@H]2NC(=O)N[C@@H]21)NCCCOCCOCCOCCCN*; Suc = O=C(CCC(=O)[*:2])[*:1]
# Key:
# MAGI1-5 = MAGI1-5 (Homo sapiens, UniProt Q96QZ7); experiment: Holdup assay, MAGI1-5; assay type: binding
# Sequence of MAGI1-5 (Q96QZ7 970-1066): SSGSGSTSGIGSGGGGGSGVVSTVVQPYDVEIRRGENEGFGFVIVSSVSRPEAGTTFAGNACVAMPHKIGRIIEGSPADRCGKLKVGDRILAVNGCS
# DLG2-1 = DLG2-1 (Homo sapiens, UniProt Q15700); experiment: Holdup assay, DLG2-1; assay type: binding
# GRIP2-1 = experiment: Holdup assay, GRIP2-1; assay type: binding, human
# INTU-1 = experiment: Holdup assay, INTU-1; assay type: binding, human
# INADL-8 = INADL-8 (Homo sapiens, UniProt Q8NI35); experiment: Holdup assay, INADL-8; assay type: binding
# Sequence of INADL-8 (Q8NI35 whole entry): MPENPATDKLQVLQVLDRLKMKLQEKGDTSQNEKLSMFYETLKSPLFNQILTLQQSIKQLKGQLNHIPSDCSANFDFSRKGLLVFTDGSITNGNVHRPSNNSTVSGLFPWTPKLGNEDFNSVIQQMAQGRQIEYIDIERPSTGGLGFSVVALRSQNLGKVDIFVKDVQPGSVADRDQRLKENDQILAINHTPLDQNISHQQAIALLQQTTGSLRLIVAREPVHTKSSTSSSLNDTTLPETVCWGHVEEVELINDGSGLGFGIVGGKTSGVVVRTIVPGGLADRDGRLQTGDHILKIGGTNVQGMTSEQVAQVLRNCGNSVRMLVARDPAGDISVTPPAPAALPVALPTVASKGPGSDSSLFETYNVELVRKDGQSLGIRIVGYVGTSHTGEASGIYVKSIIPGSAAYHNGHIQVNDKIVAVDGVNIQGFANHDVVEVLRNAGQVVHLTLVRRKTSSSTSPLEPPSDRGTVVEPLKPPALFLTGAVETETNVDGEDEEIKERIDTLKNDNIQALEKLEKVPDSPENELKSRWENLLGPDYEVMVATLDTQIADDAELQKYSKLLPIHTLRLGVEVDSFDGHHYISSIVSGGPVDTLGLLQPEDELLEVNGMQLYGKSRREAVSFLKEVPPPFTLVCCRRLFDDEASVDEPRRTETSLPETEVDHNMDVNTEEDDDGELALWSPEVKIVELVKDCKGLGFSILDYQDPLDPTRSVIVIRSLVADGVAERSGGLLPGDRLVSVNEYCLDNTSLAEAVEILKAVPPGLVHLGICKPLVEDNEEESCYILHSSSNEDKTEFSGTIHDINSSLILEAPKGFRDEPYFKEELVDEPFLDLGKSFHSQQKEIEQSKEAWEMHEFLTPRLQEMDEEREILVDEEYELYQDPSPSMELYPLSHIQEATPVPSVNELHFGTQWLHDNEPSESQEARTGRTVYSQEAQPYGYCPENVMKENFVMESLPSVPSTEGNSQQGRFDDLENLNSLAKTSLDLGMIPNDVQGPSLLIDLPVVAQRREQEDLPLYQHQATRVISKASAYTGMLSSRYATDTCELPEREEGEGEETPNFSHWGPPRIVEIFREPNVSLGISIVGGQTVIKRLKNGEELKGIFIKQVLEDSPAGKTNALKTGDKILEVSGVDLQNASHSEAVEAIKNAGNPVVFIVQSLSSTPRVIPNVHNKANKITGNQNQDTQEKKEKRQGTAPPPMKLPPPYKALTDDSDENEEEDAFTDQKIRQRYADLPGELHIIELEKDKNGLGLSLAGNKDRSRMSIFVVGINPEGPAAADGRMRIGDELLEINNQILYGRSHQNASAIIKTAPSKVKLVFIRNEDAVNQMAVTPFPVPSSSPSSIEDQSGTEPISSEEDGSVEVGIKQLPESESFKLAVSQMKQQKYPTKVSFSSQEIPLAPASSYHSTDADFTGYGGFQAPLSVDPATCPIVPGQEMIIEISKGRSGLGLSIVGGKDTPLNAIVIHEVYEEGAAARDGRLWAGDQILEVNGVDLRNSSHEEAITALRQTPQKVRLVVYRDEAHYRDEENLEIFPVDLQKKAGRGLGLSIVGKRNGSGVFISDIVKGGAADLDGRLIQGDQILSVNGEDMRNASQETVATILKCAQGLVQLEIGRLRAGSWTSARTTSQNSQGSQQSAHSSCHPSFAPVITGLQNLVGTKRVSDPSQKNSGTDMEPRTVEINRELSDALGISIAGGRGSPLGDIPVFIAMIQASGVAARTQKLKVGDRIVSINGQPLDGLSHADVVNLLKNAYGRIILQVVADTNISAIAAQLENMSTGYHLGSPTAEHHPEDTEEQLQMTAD
# GRIP1-3 = experiment: Holdup assay, GRIP1-3; assay type: binding, human
# NHERF1 PDZ 1 = biological target: T1, NHERF1 PDZ 1 (Homo sapiens, UniProt O14745); experiment: Holdup assay, NHERF1-1; assay type: binding; details: for BI: PDZ domain NHERF1-1
# T1 construct: NHERF1-1 as the first PDZ domain of the NHERF1 protein; made in house; host or cells: E. coli
# T1 sequence (O14745 14-94 limits assumed): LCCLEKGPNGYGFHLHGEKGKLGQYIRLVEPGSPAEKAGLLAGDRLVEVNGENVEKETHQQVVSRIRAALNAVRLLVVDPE
# Method: (§1) The holdup assay was performed on a Tecan freedom Evo200 robot with 384-well plates in singlicate for the three 11-mer PTEN variants and the 13-mer PTEN peptide as described in [31, 32]. Briefly, prior to interaction assay, 2.5 μL of streptavidin resin was saturated in each well with 20 μL of biotinylated PBM peptides (42 μM) and then washed twice with an excess of free biotin, while the reference resin was incubated only with biotin. Right before the holdup experiment, the PDZ library was spiked with an internal standard of lysozyme. Then, the biotin- or PBM-saturated resin was incubated, each in a distinct well of a 384-well plate, with complete cell lysates diluted so that the concentration of the tag-PDZ present in the crude extract is adjusted at 4 μM. After a sufficient time to reach complex equilibrium (15 min.), a fast and mild filtration step is performed and the tag-PDZ concentrations were measured by capillary electrophoresis instrument (LabChip GXII, PerkinElmer, Massachusets, USA). Standard markers were used to convert migration time into molecular weight on the LabChip software and inappropriate molecular weight markers were corrected or excluded.
# (§2) For filtered data, the BI was extracted with the following equation (Eq 1) that estimates the depleted fraction after superimposition of the sample and reference electropherograms: BI=Iref−Ilig/Iref (1) where Iref and Ilig are the intensities of the tag-PDZ peaks measured, for each PDZ domain/PBM peptide interaction pair, in the biotin reference and the PBM electropherograms, respectively.
# (§3) BIs were transformed into dissociation constants (KD) using the following formula: KD=([PDZtot]−BI·[PDZtot])·([PBMtot]−BI·[PDZtot])/BI·[PDZtot] (2) where [PDZtot] and [PBMtot] correspond to the total concentrations of the PDZ domain (usually around 4 μM) and the PBM peptide used during the assay. Since the PBMtot concentration in the resin during the holdup assay parameter may differ from one peptide to another and remains unknown, it is impossible to directly convert BI values into KD constants. We systematically determined the KD constants for a subset of PDZ/PBM pairs by competitive FP. […] For each PBM, the average peptide concentration was calculated after outlier rejection based on the absolute distances from the median as compared to three times the standard deviation (3σ rule), with never more than 2 values rejected.
# INADL-7 = INADL-7 (Homo sapiens, UniProt Q8NI35); experiment: Holdup assay, INADL-7; assay type: binding
# Sequence of INADL-7 (Q8NI35 whole entry): as the sequence (Q8NI35 whole entry) above
# AHNAK2-1 = experiment: Holdup assay, AHNAK2-1; assay type: binding, human
# GRIP2-5 = experiment: Holdup assay, GRIP2-5; assay type: binding, human
# MAGI2 PDZ 3 = biological target: T2, MAGI2 PDZ 3 (Homo sapiens, UniProt Q86UL8); experiment: Holdup assay, MAGI2-3; assay type: binding; details: for BI: MAGI2-3
# T2 construct: made in house; host or cells: E. coli
# T2 sequence (Q86UL8 605-683 limits assumed): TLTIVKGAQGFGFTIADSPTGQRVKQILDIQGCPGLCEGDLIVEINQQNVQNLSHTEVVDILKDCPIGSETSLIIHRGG
# Method: as §1, §2, §3
# LIMK1-1 = experiment: Holdup assay, LIMK1-1; assay type: binding, human
# DVL3-1 = experiment: Holdup assay, DVL3-1; assay type: binding, human
# DLG4-2 = DLG4-2 (Homo sapiens, UniProt P78352); experiment: Holdup assay, DLG4-2; assay type: binding
# Sequence of DLG4-2 (P78352 160-246): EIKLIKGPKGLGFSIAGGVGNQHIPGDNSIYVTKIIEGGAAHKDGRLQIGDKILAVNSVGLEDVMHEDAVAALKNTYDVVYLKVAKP
# MAGI1-1 = experiment: Holdup assay, MAGI1-1; assay type: binding, human
# LIN7A-1 = experiment: Holdup assay, LIN7A-1; assay type: binding, human
# DLG4 PDZ 3 = biological target: T3, DLG4 PDZ 3 (Homo sapiens, UniProt P78352); experiment: Holdup assay, DLG4-3; assay type: binding
# T3 construct: made in house; host or cells: E. coli
# T3 sequence (P78352 313-393 limits assumed): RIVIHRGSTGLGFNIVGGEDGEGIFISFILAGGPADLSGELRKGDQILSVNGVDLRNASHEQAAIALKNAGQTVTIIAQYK
# Method: as §1, §2, §3
# NHERF2 PDZ 2 = biological target: T4, NHERF2 PDZ 2 (Homo sapiens, UniProt Q15599); experiment: Holdup assay, NHERF2-2; assay type: binding; details: for BI: PDZ domain NHERF2-2 (gene MPDZ, 9)
# T4 construct: made in house; host or cells: E. coli
# T4 sequence (Q15599 150-230 limits assumed): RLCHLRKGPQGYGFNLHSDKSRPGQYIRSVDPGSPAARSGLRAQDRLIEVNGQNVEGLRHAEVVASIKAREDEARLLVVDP
# Method: as §1, §2, §3
# IL16-3 = experiment: Holdup assay, IL16-3; assay type: binding, human
# DLG5-2 = experiment: Holdup assay, DLG5-2; assay type: binding, human
# FRMPD2-3 = experiment: Holdup assay, FRMPD2-3; assay type: binding, human
# GORASP2-1 = GORASP2-1 (Homo sapiens, UniProt Q9H8Y8); experiment: Holdup assay, GORASP2-1; assay type: binding
# DLG5-3 = experiment: Holdup assay, DLG5-3; assay type: binding, human
# DVL1-1 = experiment: Holdup assay, DVL1-1; assay type: binding, human
# MAGI1 PDZ 2 = biological target: T5, MAGI1 PDZ 2 (Homo sapiens, UniProt Q96QZ7); experiment: Holdup assay, MAGI1-2; assay type: binding
# T5 construct: made in house; host or cells: E. coli
# T5 sequence (Q96QZ7 472-554 limits assumed): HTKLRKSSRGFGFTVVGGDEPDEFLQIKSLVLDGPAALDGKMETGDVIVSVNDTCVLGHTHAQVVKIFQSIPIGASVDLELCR
# Method: as §1, §2
# BIs were transformed into dissociation constants (KD) using the following formula: KD=([PDZtot]−BI·[PDZtot])·([PBMtot]−BI·[PDZtot])/BI·[PDZtot] […] We systematically determined the KD constants for a subset of PDZ/PBM pairs by competitive FP. […] For each PBM, the average peptide concentration was calculated after outlier rejection based on the absolute distances from the median as compared to three times the standard deviation (3σ rule), with never more than 2 values rejected.
# LNX1-3 = experiment: Holdup assay, LNX1-3; assay type: binding, human
compound,measurement,setting,value
CC[C@H](C)[C@H](NC(=O)[C@H](CCC(N)=O)NC(=O)[C@@H](NC(=O)[C@H](Cc1c[nH]cn1)NC(=O)[C@H](CCC(N)=O)NC(=O)[C@H](CC(=O)O)NC(=O)[C@H](CCC(=O)O)NC(=O)[C@H](CC(=O)O)NC(=O)CCC(=O)NCCCOCCOCCOCCCNC(=O)CCCC[C@@H]1SC[C@@H]2NC(=O)N[C@@H]21)[C@@H](C)O)C(=O)N[C@H](C(=O)N[C@@H](CCCNC(=N)N)C(=O)N[C@H](C(=O)O)C(C)C)[C@@H](C)O [PTEN_KR] ({X1-Suc}-DEDQHTQITRV-OH),BI,MAGI1-5,0.619
same,Kd,MAGI1-5,13.9 µM
same,BI,DLG2-1; DLG2-1,0.191
same,BI,GRIP2-1,-0.04
same,LogKD,GRIP2-1,3.655
same,BI,INTU-1,-0.043
same,LogKD,INTU-1,3.655
same,BI,INADL-8,0.532
same,Kd,INADL-8,20.1 µM
same,BI,GRIP1-3,-0.034
same,LogKD,GRIP1-3,3.655
same,Kd,NHERF1 PDZ 1,3.45 µM
same,BI,NHERF1 PDZ 1,0.862
same,BI,INADL-7,0.176
same,BI,AHNAK2-1,-0.009
same,LogKD,AHNAK2-1,3.655
same,BI,GRIP2-5,0.006
same,LogKD,GRIP2-5,3.655
same,Kd,MAGI2 PDZ 3,21.2 µM
same,BI,MAGI2 PDZ 3,0.52
same,BI,LIMK1-1,-0.08
same,LogKD,LIMK1-1,3.655
same,BI,DVL3-1,0.037
same,LogKD,DVL3-1,3.655
same,BI,DLG4-2,0.284
same,Kd,DLG4-2,60.2 µM
same,BI,MAGI1-1,-0.057
same,LogKD,MAGI1-1,3.655
same,BI,LIN7A-1,-0.026
same,LogKD,LIN7A-1,3.655
same,BI,DLG4 PDZ 3,0.043
same,Kd,NHERF2 PDZ 2,20.9 µM
same,BI,NHERF2 PDZ 2,0.523
same,BI,IL16-3,-0.005
same,LogKD,IL16-3,3.655
same,BI,DLG5-2,-0.028
same,LogKD,DLG5-2,3.655
same,BI,FRMPD2-3,-0.067
same,LogKD,FRMPD2-3,3.655
same,Kd,GORASP2-1,16 µM
same,BI,GORASP2-1; GORASP2-1,0.586
same,BI,DLG5-3,-0.084
same,LogKD,DLG5-3,3.655
same,BI,DVL1-1,-0.056
same,LogKD,DVL1-1,3.655
CC[C@H](C)[C@H](NC(=O)[C@H](CCC(N)=O)NC(=O)[C@@H](NC(=O)[C@H](Cc1c[nH]cn1)NC(=O)[C@H](CCC(N)=O)NC(=O)[C@H](CC(=O)O)NC(=O)[C@H](CCC(=O)O)NC(=O)[C@H](CC(=O)O)NC(=O)[C@H](Cc1ccccc1)NC(=O)[C@@H]1CCCN1C(=O)CCC(=O)NCCCOCCOCCOCCCNC(=O)CCCC[C@@H]1SC[C@@H]2NC(=O)N[C@@H]21)[C@@H](C)O)C(=O)N[C@H](C(=O)N[C@@H](CCCCN)C(=O)N[C@H](C(=O)O)C(C)C)[C@@H](C)O [PTEN_13] ({X1-Suc}-PFDEDQHTQITKV-OH),BI,MAGI1-5,0.274
same,Kd,MAGI1-5,42.1 µM
same,BI,DLG2-1; DLG2-1,0.035
same,LogKD,DLG2-1; DLG2-1,3.826
same,BI,GRIP2-1,-0.085
same,BI,INTU-1,-0.039
same,BI,INADL-8,0.247
same,Kd,INADL-8,48.8 µM
same,BI,GRIP1-3,-0.002
same,BI,INADL-7,0.07
same,LogKD,INADL-7,3.826
same,BI,GRIP2-5,-0.06
same,Kd,MAGI2 PDZ 3,30.1 µM
same,BI,MAGI2 PDZ 3,0.342
same,BI,MAGI1 PDZ 2,-0.017
same,BI,LNX1-3,0.016
same,BI,LIMK1-1,-0.103
same,BI,DVL3-1,-0.003
same,BI,DLG4-2,-0.004
same,LogKD,DLG4-2,3.826
same,BI,MAGI1-1,-0.027
same,BI,LIN7A-1,-0.019
same,BI,DLG4 PDZ 3,-0.097
same,BI,NHERF2 PDZ 2,0.117
same,BI,IL16-3,-0.001
same,BI,DLG5-2,-0.092
same,BI,FRMPD2-3,-0.027
same,BI,GORASP2-1; GORASP2-1,0.092
same,LogKD,GORASP2-1; GORASP2-1,3.826
same,BI,DLG5-3,0.002
same,BI,DVL1-1,-0.013
CC[C@H](C)[C@H](NC(=O)[C@H](CCC(N)=O)NC(=O)[C@@H](NC(=O)[C@H](Cc1c[nH]cn1)NC(=O)[C@H](CCC(N)=O)NC(=O)[C@H](CC(=O)O)NC(=O)[C@H](CCC(=O)O)NC(=O)[C@H](CC(=O)O)NC(=O)CCC(=O)NCCCOCCOCCOCCCNC(=O)CCCC[C@@H]1SC[C@@H]2NC(=O)N[C@@H]21)[C@@H](C)O)C(=O)N[C@H](C(=O)N[C@@H](CCCCNC(C)=O)C(=O)N[C@H](C(=O)O)C(C)C)[C@@H](C)O [PTEN_Ac],BI,MAGI1-5,0.647
same,Kd,MAGI1-5,13.9 µM
same,Kd,DLG2-1,102 µM
same,BI,DLG2-1; DLG2-1,0.211
same,BI,GRIP2-1,-0.038
same,LogKD,GRIP2-1,3.605
same,BI,INTU-1,0.042
same,LogKD,INTU-1,3.605
same,BI,INADL-8,0.509
same,Kd,INADL-8,25 µM
same,BI,GRIP1-3,0.02
same,LogKD,GRIP1-3,3.605
same,Kd,NHERF1 PDZ 1,13.6 µM
same,BI,NHERF1 PDZ 1,0.652
same,BI,INADL-7,0.306
same,Kd,INADL-7,60.7 µM
same,BI,AHNAK2-1,0.034
same,LogKD,AHNAK2-1,3.605
same,BI,GRIP2-5,0.067
same,LogKD,GRIP2-5,3.605
same,Kd,MAGI2 PDZ 3,15.3 µM
same,BI,MAGI2 PDZ 3,0.625
same,BI,MAGI1 PDZ 2,0.101
same,BI,LNX1-3,0.072
same,LogKD,LNX1-3,3.605
same,BI,LIMK1-1,-0.047
same,LogKD,LIMK1-1,3.605
same,BI,DVL3-1,-0.002
same,LogKD,DVL3-1,3.605
same,BI,MAGI1-1,0.034
same,LogKD,MAGI1-1,3.605
same,BI,LIN7A-1,-0.07
same,LogKD,LIN7A-1,3.605
same,BI,DLG4 PDZ 3,-0.024
same,BI,NHERF2 PDZ 2,0.066
same,BI,IL16-3,-0.166
same,LogKD,IL16-3,3.605
same,BI,DLG5-2,0.018
same,LogKD,DLG5-2,3.605
same,BI,FRMPD2-3,-0.064
same,LogKD,FRMPD2-3,3.605
same,Kd,GORASP2-1,36.7 µM
same,BI,GORASP2-1; GORASP2-1,0.418
same,BI,DLG5-3,-0.047
same,LogKD,DLG5-3,3.605
same,BI,DVL1-1,-0.016
same,LogKD,DVL1-1,3.605
